Legend:
Homo sapiens [1] = assay: Increase in P-gp-substrate 99mTc]sestaMIBI accumulation in liver of human with metastatic cancer at 150 mg, iv by imaging analysis; type: functional
Homo sapiens [2] = assay: Increase in P-gp-substrate 99mTc]sestaMIBI accumulation in tumor and heart of human with metastatic cancer at 150 mg, iv by imaging analysis; type: functional

**Q.** Which Activity (Homo sapiens [1]) does the source give for COc1cc2c(cc1OC)CN(CCc1ccc(NC(=O)c3cc(OC)c(OC)cc3NC(=O)c3cnc4ccccc4c3)cc1)CC2 [TARIQUIDAR] here?
**A.** The Activity was 128%.

**Q.** And the Activity (Homo sapiens [2])?
**A.** The Activity was 36%.

From ChEMBL document CHEMBL1154709, “Perspectives of P-glycoprotein modulating agents in oncology and neurodegenerative diseases: pharmaceutical, biological, and diagnostic potentials” (2010)
